# Active and inactive are the calls of the source.
# Key:
# [1] = A Cell Based Secondary Assay To Explore Cytotoxicity of Compounds that Sensitize Mycobacterium Tuberculosis to Beta-Lactam Antibiotics.; assay type: functional
# H9c2 = assay: cells; assay type: functional, cell-based; settings: Rattus norvegicus, H9c2, Myocardium;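 further: confirmatory concentration-response retest of ultra-high-throughput screening hits for modulation of myocardial damage; cell death induced by hydrogen peroxide oxidative stress; compound pretreatment for 60 min then peroxide exposure for 2 h; potency is for protecting the cells against peroxide damage rather than for killing them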
# [2] = molecular target: T1, RNA-binding protein pos-1 (Caenorhabditis elegans, UniProt G5EF15); assay: inhibitors of POS-1/mex-3 RNA binding, dose response, biochemical, fluorescence polarization (AID 1964);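 further: purified POS-1 fused to maltose binding protein made in E. coli; potency of compounds blocking POS-1 binding to fluorescent RNA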
# T1 sequence (G5EF15 whole entry): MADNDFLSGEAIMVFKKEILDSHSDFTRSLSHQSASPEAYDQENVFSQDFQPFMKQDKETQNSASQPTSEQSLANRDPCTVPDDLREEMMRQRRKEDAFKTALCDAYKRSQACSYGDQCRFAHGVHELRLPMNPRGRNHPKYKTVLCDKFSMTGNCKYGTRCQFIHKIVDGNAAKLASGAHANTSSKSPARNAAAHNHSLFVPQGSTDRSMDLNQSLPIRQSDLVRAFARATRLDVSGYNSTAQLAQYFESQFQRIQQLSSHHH
# [3] = molecular target: T2, Zinc finger protein mex-5 (Caenorhabditis elegans, UniProt Q9XUB2); assay: MEX-5/TCR-2 RNA interaction inhibitors, dose response, biochemical, C. elegans, fluorescence polarization (AID 1960)
# T2 sequence (Q9XUB2 whole entry): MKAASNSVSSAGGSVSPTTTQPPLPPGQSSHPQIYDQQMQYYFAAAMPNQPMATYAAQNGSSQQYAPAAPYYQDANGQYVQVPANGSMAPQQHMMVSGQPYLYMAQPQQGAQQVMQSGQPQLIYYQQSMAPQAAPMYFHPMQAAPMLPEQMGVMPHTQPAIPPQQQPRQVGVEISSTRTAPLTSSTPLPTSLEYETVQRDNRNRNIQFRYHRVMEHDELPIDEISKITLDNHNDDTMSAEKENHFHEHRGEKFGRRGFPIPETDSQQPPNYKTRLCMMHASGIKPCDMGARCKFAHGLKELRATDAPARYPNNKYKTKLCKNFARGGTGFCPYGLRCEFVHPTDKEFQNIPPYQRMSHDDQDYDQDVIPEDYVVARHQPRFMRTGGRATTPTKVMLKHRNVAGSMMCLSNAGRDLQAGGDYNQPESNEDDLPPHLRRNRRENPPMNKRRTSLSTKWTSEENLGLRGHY
# [4] = microbe, parasite or virus in culture; assay type: functional; settings: Mycobacterium tuberculosis
# [5] = molecular target: T3, Heat shock factor protein 1 (Mus musculus, UniProt P38532); assay: inhibition of MG132-induced HSE-luciferase signal, confirmation, cell-based, NIH3T3, luminescence, dose retest (AID 2382); assay type: functional;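 further: NIH3T3 fibroblasts with HSF1-driven luciferase reporter stressed by proteasome inhibitor MG132; luminescence from HSF1-driven luciferase expression after 8 hours of MG132 stress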
# T3 sequence (P38532 whole entry): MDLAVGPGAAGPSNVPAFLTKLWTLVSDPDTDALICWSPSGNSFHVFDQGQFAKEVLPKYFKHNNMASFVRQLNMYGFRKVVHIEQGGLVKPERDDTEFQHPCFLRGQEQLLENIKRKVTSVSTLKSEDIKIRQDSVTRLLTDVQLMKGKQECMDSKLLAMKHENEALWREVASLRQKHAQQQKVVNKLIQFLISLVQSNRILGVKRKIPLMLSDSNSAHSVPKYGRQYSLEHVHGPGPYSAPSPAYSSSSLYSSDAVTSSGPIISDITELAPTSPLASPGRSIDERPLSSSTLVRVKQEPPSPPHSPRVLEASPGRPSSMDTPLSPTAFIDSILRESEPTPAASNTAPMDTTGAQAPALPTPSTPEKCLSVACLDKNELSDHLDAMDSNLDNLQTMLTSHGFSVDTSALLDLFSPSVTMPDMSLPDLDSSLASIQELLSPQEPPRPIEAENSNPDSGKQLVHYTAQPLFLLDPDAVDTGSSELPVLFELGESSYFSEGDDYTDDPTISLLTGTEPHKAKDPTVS
# Cytochrome P450 2C19 = Cytochrome P450 2C19 (Homo sapiens, UniProt P33261); assay: Cytochrome panel assay with activity outcomes. Panel member name: p450-cyp2c19 Compounds with AC50 equal or less than 10 uM are considered active; assay type: functional; settings: read-out: AC50
# [6] = molecular target: T4, Ubiquitin-conjugating enzyme E2 N (Homo sapiens, UniProt P61088); assay type: functional;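 further: Dose-response confirmation in a TR-FRET assay detecting UBC13-driven polyubiquitin chain formation, inhibition measured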
# T4 sequence (P61088 whole entry): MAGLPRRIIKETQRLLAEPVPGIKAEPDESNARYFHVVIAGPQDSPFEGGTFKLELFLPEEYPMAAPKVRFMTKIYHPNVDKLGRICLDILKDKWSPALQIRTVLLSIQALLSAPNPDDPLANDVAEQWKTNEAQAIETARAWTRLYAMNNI
# [7] = ZM109 Env clade C HIV-1 fusion inhibitors, dose response, HeLa effector, CEM target cells, luciferase, cherry-pick (AID 652058); assay type: functional, cell-based
# [8] = inhibitors of HIV Env-driven cell fusion, dose response, cherry-pick (AID 652057); assay type: functional, cell-based
# [9] = inhibitors of clade B AD8 Env fusion, dose response, cell-based, cherry-pick (AID 652062); assay type: functional;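 further: luciferase signal from cell-cell fusion driven by HIV-1 clade B AD8 Env; potency is for inhibitors of fusion seen as a drop in luminescence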
# Chain of Cytochrome P450 2C19 (P33261 whole entry): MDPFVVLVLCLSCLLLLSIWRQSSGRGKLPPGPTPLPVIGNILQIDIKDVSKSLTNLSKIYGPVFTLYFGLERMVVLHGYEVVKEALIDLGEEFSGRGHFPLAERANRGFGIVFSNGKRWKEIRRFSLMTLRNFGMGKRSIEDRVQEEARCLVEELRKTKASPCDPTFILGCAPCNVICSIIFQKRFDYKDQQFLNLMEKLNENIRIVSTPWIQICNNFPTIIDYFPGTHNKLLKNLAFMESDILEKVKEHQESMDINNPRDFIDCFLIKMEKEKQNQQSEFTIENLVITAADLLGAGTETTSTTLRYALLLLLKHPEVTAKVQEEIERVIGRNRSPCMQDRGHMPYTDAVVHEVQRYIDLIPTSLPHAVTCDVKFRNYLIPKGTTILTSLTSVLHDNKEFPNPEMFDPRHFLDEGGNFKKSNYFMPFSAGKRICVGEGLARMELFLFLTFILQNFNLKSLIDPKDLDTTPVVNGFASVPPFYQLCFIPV
compound,measurement,setting,value
O=C(C1=C[C@@H](c2ccc(Br)cc2)C[C@@H](OCc2ccc(CO)cc2)O1)N1CCN(Cc2ccc3c(c2)OCO3)CC1,CC50,[1],> 40 µM (active)
Cn1nnnc1Sc1ncnc2scc(-c3ccccc3)c12,CC50,[1],30 µM (active)
O=[N+]([O-])c1ccc(-c2nc(Nc3ccc(O)cc3)c3ccccc3n2)cc1,IC50,H9c2,> 79 µM (inactive)
CCOC(=O)c1c(C)[nH]c(C)c1C(=O)COC(=O)/C=C/c1ccc(OC(F)F)cc1,CC50,[1],> 40 µM (active)
Cc1ccc(N/C=C/C(=O)c2sc(-c3ccccc3)nc2C)cc1,EC50,[2],46.4 µM (inconclusive)
same,EC50,[3],> 300 µM (not active)
CCOc1ccc2nc(NC(=O)C34CC5CC(CC(NC(C)=O)(C5)C3)C4)sc2c1,CC50,[4],> 40 µM (active)
CCOc1ccc2c(c1)/C(=C(\C(Cl)=C(Cl)Cl)[N+](=O)[O-])N2,EC50,[2],68 µM (active)
same,EC50,[3],40.3 µM (active)
Cc1ccc2[nH]c(O)c(N=Nc3ccccc3C)c2c1,EC50,[2],> 300 µM (not active)
same,EC50,[5],> 195 µM (not active)
same,EC50,[3],> 300 µM (not active)
Cc1c(C#N)c(N)nc2c3c(sc12)NC(=O)CC3c1ccc(Cl)cc1 (stereo not drawn),IC50,H9c2,28.2 µM (active)
Cc1c(C(=O)NC(=S)Nc2ccccc2N2CCCC2)cccc1[N+](=O)[O-],CC50,[1],> 40 µM (active)
Oc1nc(-c2cccnc2)nc2ccccc12,IC50,H9c2,12.8 µM (active)
COc1ccc(-c2cc(=O)oc3cc(OC(=O)C4CCCCC4)ccc23)cc1,IC50,H9c2,22 µM (active)
Cc1ccc(C)c(S(=O)(=O)N2CCN(C(=O)Cn3[nH]c(=O)c4ccccc4c3=O)CC2)c1,IC50,H9c2,> 79 µM (inactive)
COc1ccc(NC(=S)N(Cc2cccnc2)Cc2cc3cc(OC)c(OC)cc3nc2O)cc1,IC50,H9c2,> 79 µM (inactive)
C=CCSc1nnc(-c2cc3c(-c4ccccc4)nn(C)c3s2)n1C,AC50,Cytochrome P450 2C19,17.8 µM (inconclusive)
same,CC50,[1],> 40 µM (active)
COC(=O)c1sccc1NC(=O)c1ccc(C)s1,EC50,[2],> 300 µM (not active)
same,EC50,[3],> 300 µM (not active)
COc1ccc(-c2cc(C(F)(F)F)nc(SCC(=O)Nc3sc4c(c3C#N)CCC4)n2)cc1,CC50,[1],> 40 µM (active)
CCN1C(N(C)CCc2c[nH]c3ccccc23)=N[C@@H](c2cccc(C(F)(F)F)c2)C(C(=O)OC)=C1C,CC50,[4],14.3 µM (active)
same,IC50,[6],> 20 µM (inactive)
O=C(Nc1cccc2cccnc12)c1ccc2sc([C@H]3C[C@H](O)[C@@H](CO)O3)nc2c1,IC50,H9c2,11 µM (active)
CC(=O)c1ccc(-c2[nH]c3ccccc3c2CCN2C(=O)c3ccccc3C2=O)cc1,IC50,H9c2,> 79 µM (inactive)
CC(=C/c1ccc(C(C)C)cc1)/C=N/NC(=O)c1ccncc1,IC50,H9c2,> 79 µM (inactive)
O=[N+]([O-])c1ccc(Nc2nc(N/N=C/c3cccc(F)c3)nc(N3CCCC3)n2)cc1,IC50,H9c2,> 79 µM (inactive)
CC(C)NC(=O)Nc1ccc2c(c1)C(=O)N([C@@H](C)CO)C[C@@H](C)[C@@H](CN(C)C(=O)Nc1ccc(F)cc1)OCCCC[C@@H](C)O2,AC50,[7],5.56 µM (active)
same,AC50,[8],2.79 µM (active)
same,AC50,[9],3.2 µM (active)
C[C@H]1CN([C@@H](C)CO)C(=O)c2ccccc2-c2ccccc2CO[C@H]1CN(C)Cc1ccc(F)cc1,AC50,[7],< 0.285 µM (active)
same,AC50,[8],< 0.285 µM (active)
same,AC50,[9],0.857 µM (active)
COc1ccccc1-c1ccc2c(c1)O[C@H](CN(C)S(=O)(=O)c1ccccc1)[C@H](C)CN([C@H](C)CO)S2(=O)=O,AC50,[7],51.3 µM (active)
same,AC50,[8],23.5 µM (active)
CCOc1cc(/C=N\NC(=O)c2ccc(NC(=O)C(C)(C)C)cc2)ccc1OC(=O)c1ccc(C)cc1,CC50,[1],> 40 µM (active)
